# Read-outs that look alike come from different tables or passages of the source. Peptide text beside a SMILES is read from it. * marks the point of attachment. Cbz = O=C(OCc1ccccc1)*; CH2F = FC*
# Experiments:
# [1] = system: DHL6; experiment: Combination synergy, Cell Titer Glo, 72 hours; assay type: cell-based
# Protocol: (§1) Synergistic anti-tumor activity in DLBCL cell lines was determined using the Cell Titer Glo assay. Briefly, 5,000 cells were plated in 96 well plates in complete tissue culture media. […] Cells were incubated with or without drug for 72 hours in a 37° C. tissue culture incubator prior to evaluation by CellTiter Glo as per the manufacturer protocol (Promega). Synergy was evaluated by calculating combination index score, as described elsewhere (Jacquement et al, Molecular Cancer 2012) following IC50 determination using Prism software. The compounds are commercially available or are made according to synthetic methods known to those skilled in the art.
# as §1, with “calculating a” for “calculating”
# [2] = system: DHL10; experiment: Combination synergy, Cell Titer Glo, 72 hours; assay type: cell-based
# Protocol: as §1
# as §1, with “calculating a” for “calculating”
# [3] = system: Lyl (OCI-Lyl); experiment: Combination synergy, Cell Titer Glo, 72 hours; assay type: cell-based
# Protocol: as §1
# as §1, with “calculating a” for “calculating”
# [4] = system: DHL4 (SU-DHL4); experiment: Combination synergy, Cell Titer Glo, 72 hours; assay type: cell-based; conditions: Homo sapiens
# Protocol: as §1
# as §1, with “calculating a” for “calculating”
# [5] = system: VAL; experiment: Combination synergy, Cell Titer Glo, 72 hours; assay type: cell-based
# Protocol: as §1
# as §1, with “calculating a” for “calculating”
# [6] = system: TOLEDO; experiment: Combination synergy, Cell Titer Glo, 72 hours; assay type: cell-based; conditions: Homo sapiens
# Protocol: as §1
# [7] = system: U2932; experiment: Combination synergy, Cell Titer Glo, 72 hours; assay type: cell-based; conditions: Homo sapiens
# Protocol: as §1
# [8] = system: CLL primary cells; experiment: CLL cell viability with IL-4/CD40L, PI/Annexin V staining; assay type: cell-based, human
# Protocol: Viability was assessed using (A) PI/Annexin V staining by flow cytometry. A representative plot is shown or (B) summarized (n=9) showing % of control (PI/Annexin V negative cells). […] Points below the diagonal line represent synergistic interactions, above the line are additive.
# Values above the diagonal line represent additive interaction and those under the line are synergistic.
# [9] = system: RCK8; experiment: DLBCL cell line viability, CellTiter Glo, ten-point curve; assay type: cell-based; conditions: Homo sapiens; RCK8 cell line; read-out: IC50 of Kinase Inhibitor in Cell Titer Glo Assay
# Excerpt: (§2) Each IC50 value is an average of at least four replicate experiments.
# [10] = system: DHL8; experiment: as above; assay type: cell-based; conditions: read-out: IC50 of Kinase Inhibitor in Cell Titer Glo Assay
# Excerpt: as §2
# [11] = system: TOLEDO; experiment: as above; assay type: cell-based; conditions: Homo sapiens; TOLEDO cell line; read-out: IC50 of Kinase Inhibitor in Cell Titer Glo Assay
# Excerpt: as §2
# [12] = system: LY10 (OCI-LY10); experiment: as above; assay type: cell-based; conditions: LY10 cell line; read-out: IC50 of Kinase Inhibitor in Cell Titer Glo Assay
# Excerpt: as §2
# [13] = system: LY18; experiment: as above; assay type: cell-based; conditions: read-out: IC50 of Kinase Inhibitor in Cell Titer Glo Assay
# Excerpt: as §2
# [14] = system: DHL5; experiment: as above; assay type: cell-based; conditions: read-out: IC50 of Kinase Inhibitor in Cell Titer Glo Assay
# Excerpt: as §2
# [15] = system: DHL10; experiment: as above; assay type: cell-based; conditions: read-out: IC50 of Kinase Inhibitor in Cell Titer Glo Assay
# Excerpt: as §2
# [16] = system: DLCL2; experiment: as above; assay type: cell-based; conditions: read-out: IC50 of Kinase Inhibitor in Cell Titer Glo Assay
# Excerpt: as §2
# [17] = system: DHL4; experiment: as above; assay type: cell-based; conditions: read-out: IC50 of Kinase Inhibitor in Cell Titer Glo Assay
# Excerpt: as §2
# [18] = system: LY1; experiment: as above; assay type: cell-based; conditions: read-out: IC50 of Kinase Inhibitor in Cell Titer Glo Assay
# Excerpt: as §2
# [19] = system: DHL6; experiment: as above; assay type: cell-based; conditions: read-out: IC50 of Kinase Inhibitor in Cell Titer Glo Assay
# Excerpt: as §2
# [20] = system: VAL; experiment: as above; assay type: cell-based; conditions: read-out: IC50 of Kinase Inhibitor in Cell Titer Glo Assay
# Excerpt: as §2
# [21] = system: DB; experiment: as above; assay type: cell-based; conditions: Homo sapiens; DB cell line; read-out: IC50 of Kinase Inhibitor in Cell Titer Glo Assay
# Excerpt: as §2
# [22] = system: LY7; experiment: as above; assay type: cell-based; conditions: read-out: IC50 of Kinase Inhibitor in Cell Titer Glo Assay
# Excerpt: as §2
# [23] = system: U2932; experiment: as above; assay type: cell-based; conditions: Homo sapiens, read-out: IC50 of Kinase Inhibitor in Cell Titer Glo Assay
# Excerpt: as §2
# [24] = system: OCI-Ly18; experiment: Combination synergy, Cell Titer Glo, 72 hours; assay type: cell-based; conditions: Homo sapiens, OCI-Ly18, 72 h
# Protocol: as §1, with “calculating a” for “calculating”
# [25] = system: WT BTK-transfected TMD8 cells; experiment: Cell count and viability of transfected TMD8 cells; assay type: cell-based; conditions: 250 nM; 7 days
# Excerpt: (§3) Cell transfection, cell count and viability assay: TMD8 cells were transfected with constructs of WT BTK or BTK^C481S mutants using kit V, Program U-13 on Amaxa Nucleofector, according to the manufacturer's protocols (Amaxa, Cologne, Germany). After transfection, the cells were co-cultured with NKTert cells in a 24-well plate for 24 hrs for recovery.
# [26] = system: BTK^C481S-transfected TMD8 cells; experiment: Cell count and viability of transfected TMD8 cells; assay type: cell-based; conditions: 250 nM; 7 days
# Excerpt: as §3
# [27] = system: primary CLL cells; experiment: Apoptosis in primary CLL samples, propidium iodide/Annexin V staining and PARP cleavage; assay type: cell-based, human; conditions: co-treatment with cerdulatinib
structure (smiles),measurement,setting,value
"CC1(C)CCC(CN2CCN(c3ccc(C(=O)NS(=O)(=O)c4ccc(NCC5CCOCC5)c([N+](=O)[O-])c4)c(Oc4cnc5[nH]ccc5c4)c3)CC2)=C(c2ccc(Cl)cc2)C1 [ABT-199, 4-(4-{[2-(4-chlorophenyl)-4,4-dimethylcyclohex-1-en-1-yl]methyl}piperazin-1-yl)-N-({3-nitro-4-[(tetrahydro-2H-pyran-4-ylmethyl)amino]phenyl}-sulfonyl)-2-(1H-pyrrolo[2,3-b]pyridin-5-yloxy)benzamide, reference compound]",IC50,[1],0.023 µM
same,IC50,[2],3.7 µM
same,IC50,[3],0.75 µM
same,IC50,"[4]; SU-DHL-4, 72 h, read-out: IC50",1.63 µM
same,IC50,"[4]; SU-DHL-4, SU-DHL4 cell line, read-out: IC50 value",1.63 µM
same,IC50,[5],4.3 µM
same,IC50,[6],0.23 µM
same,IC50,"[7]; U2932, 72 h, read-out: IC50",0.49 µM
same,IC50,"[7]; U2932 cell line, read-out: IC50 value",0.49 µM
same,CLL cell viability,"[8]; IL-4/CD40L for 6 hours, then drug for 24 hours, n=9",protected CLL cells against ABT-199 induced apoptosis
same,CLL cell viability,"[8]; absence of IL-4/CD40L, 24 hours",significantly reduced CLL cell viability
"COc1cccc2c1C(=O)c1c(O)c3c(c(O)c1C2=O)C[C@@](O)(C(=O)CO)C[C@@H]3O[C@H]1C[C@H](N)[C@H](O)[C@H](C)O1 [Doxo, Doxorubicin]",IC50,[9],0.2 µM
same,IC50,[10],0.15 µM
same,IC50,[11],0.44 µM
same,IC50,[12],0.04 µM
same,IC50,[13],0.06 µM
same,IC50,[14],0.03 µM
same,IC50,[15],0.3 µM
same,IC50,[16],0.18 µM
same,IC50,[17],0.1 µM
same,IC50,[18],0.19 µM
same,IC50,[19],0.14 µM
same,IC50,[20],0.22 µM
same,IC50,[21],0.37 µM
same,IC50,[22],0.14 µM
same,IC50,[23],0.35 µM
C[C@H](Nc1ncnc2nc[nH]c12)c1cc2cccc(Cl)c2c(=O)n1-c1ccccc1 [IPI-145],IC50,[9],≥ 50 µM
same,IC50,[10],45 µM
same,IC50,[11],18 µM
same,IC50,[12],5.7 µM
same,IC50,[13],0.96 µM
same,IC50,[14],0.33 µM
same,IC50,[15],4.1 µM
same,IC50,[16],5 µM
same,IC50,[17],3.7 µM
same,IC50,[18],1.3 µM
same,IC50,[19],0.002 µM
same,IC50,[20],21 µM
same,IC50,[21],≥ 50 µM
same,IC50,[22],25 µM
same,IC50,[23],27 µM
"C=CC(=O)N1CCC[C@@H](n2nc(-c3ccc(Oc4ccccc4)cc3)c3c(N)ncnc32)C1 [Ibrutinib, 1-[(3R)-3-[4-Amino-3-(4-phenoxyphenyl)-1H-pyrazolo[3,4-d]pyrimidin-1-yl]piperidin-1-yl]prop-2-en-1-one, reference compound]",IC50,[24],1.24 µM
same,IC50,[1],0.31 µM
same,IC50,[2],1.89 µM
same,IC50,[3],0.75 µM
same,IC50,"[4]; SU-DHL-4, 72 h, read-out: IC50",3.1 µM
same,IC50,[5],4.56 µM
same,cell growth,[25],similarly inhibited
same,cell growth,[26],less sensitive
CC[C@H](Nc1ncnc2[nH]cnc12)c1nc2cccc(F)c2c(=O)n1-c1ccccc1 [Idelalisib],IC50,[9],≥ 50 µM
same,IC50,[10],49 µM
same,IC50,[11],≥ 50 µM
same,IC50,[12],12 µM
same,IC50,[13],3.8 µM
same,IC50,[14],1.3 µM
same,IC50,[15],12 µM
same,IC50,[16],15 µM
same,IC50,[17],12 µM
same,IC50,[18],4.9 µM
same,IC50,[19],0.03 µM
same,IC50,[20],29 µM
same,IC50,[21],42 µM
same,IC50,[22],13 µM
same,IC50,[23],40 µM
"CC(NC(=O)C(NC(=O)OCc1ccccc1)C(C)C)C(=O)NC(CC(=O)O)C(=O)CF (stereo not drawn) [ZVAD, reference compound] (Cbz-Val-Ala-Asp-CH2F; configuration not given here)",cerdulatinib induced apoptosis on co-treatment,[27],inhibited

# Reference: US11446300B2 (Alexion Pharmaceuticals, Inc., priority 2015, dated 2022)
